Test results taken from patent US5332726A, “Antithrombotic peptides and pseudopeptides” (Rhone-Poulenc Rorer Pharmaceuticals Inc., priority 1992, dated 1994).

Columns and labels:
[1] = target: fixed activated platelets (Homo sapiens, UniProt P05106+P08514); experiment: Platelet Aggregation Assay (fibrinogen-mediated aggregation of fixed-activated platelets); type: cell-based; details: for IC50: fixed activated platelets, human fibrinogen 250 μg/ml, read-out: Inhibition of Fibrinogen Mediated Platelet Aggregation IC50; for inhibition at 25 µM: read-out: Inhibition of Fibrinogen Mediated Platelet Aggregation % inhibition at 25 μM
Procedure: PLATELET AGGREGATION ASSAY
Preparation of Fixed-Activated Platelets
To the activated platelets is added paraformaldehyde to a final concentration of 0.50% and this incubated at room temperature for 30 minutes. The fixed activated platelets are then collected by centrifugation at 650×g for 15 minutes.
Platelet Aggregation Assay
The fixed activated platelets are incubated with a selected dose of the compound to be tested for platelet aggregation inhibition for one minute and aggregation initiated by addition of human fibrinogen to a final concentration of 250 μg/ml. A platelet aggregation profiler Model PAP-4 is used to record the platelet aggregation.

[2] = target: thrombin-stimulated platelets (Homo sapiens, UniProt P05106+P08514); experiment: Fibrinogen-Binding Assay (125I-fibrinogen binding to platelets); details: 125I-fibrinogen 0.176 μmol/liter, thrombin-stimulated platelets; read-out: Inhibition of 125I-Fibrinogen Binding to Platelets IC50
Procedure: Platelets are washed free of plasma constituents by the albumin density-gradient technique of Walsh, P. N., et al., Br. J. Haematol. […] After these additions, the final platelet count in the mixture is 1×10^11 /liter. After incubation for an additional 30 minutes at 22°-25° C., bound and free ligand are separated by centrifuging 50 μl of the mixture through 300 μl of 20% sucrose at 12,000×g for 4 minutes. The platelet pellet is then separated from the rest of the mixture to determine platelet-bound radioactivity. Nonspecific binding is measured in mixtures containing an excess of unlabeled ligand. […] The IC50 is derived by plotting residual fibrinogen binding against the logarithm of the sample compound's concentration.

Sequence of fixed activated platelets (P08514 32-1039): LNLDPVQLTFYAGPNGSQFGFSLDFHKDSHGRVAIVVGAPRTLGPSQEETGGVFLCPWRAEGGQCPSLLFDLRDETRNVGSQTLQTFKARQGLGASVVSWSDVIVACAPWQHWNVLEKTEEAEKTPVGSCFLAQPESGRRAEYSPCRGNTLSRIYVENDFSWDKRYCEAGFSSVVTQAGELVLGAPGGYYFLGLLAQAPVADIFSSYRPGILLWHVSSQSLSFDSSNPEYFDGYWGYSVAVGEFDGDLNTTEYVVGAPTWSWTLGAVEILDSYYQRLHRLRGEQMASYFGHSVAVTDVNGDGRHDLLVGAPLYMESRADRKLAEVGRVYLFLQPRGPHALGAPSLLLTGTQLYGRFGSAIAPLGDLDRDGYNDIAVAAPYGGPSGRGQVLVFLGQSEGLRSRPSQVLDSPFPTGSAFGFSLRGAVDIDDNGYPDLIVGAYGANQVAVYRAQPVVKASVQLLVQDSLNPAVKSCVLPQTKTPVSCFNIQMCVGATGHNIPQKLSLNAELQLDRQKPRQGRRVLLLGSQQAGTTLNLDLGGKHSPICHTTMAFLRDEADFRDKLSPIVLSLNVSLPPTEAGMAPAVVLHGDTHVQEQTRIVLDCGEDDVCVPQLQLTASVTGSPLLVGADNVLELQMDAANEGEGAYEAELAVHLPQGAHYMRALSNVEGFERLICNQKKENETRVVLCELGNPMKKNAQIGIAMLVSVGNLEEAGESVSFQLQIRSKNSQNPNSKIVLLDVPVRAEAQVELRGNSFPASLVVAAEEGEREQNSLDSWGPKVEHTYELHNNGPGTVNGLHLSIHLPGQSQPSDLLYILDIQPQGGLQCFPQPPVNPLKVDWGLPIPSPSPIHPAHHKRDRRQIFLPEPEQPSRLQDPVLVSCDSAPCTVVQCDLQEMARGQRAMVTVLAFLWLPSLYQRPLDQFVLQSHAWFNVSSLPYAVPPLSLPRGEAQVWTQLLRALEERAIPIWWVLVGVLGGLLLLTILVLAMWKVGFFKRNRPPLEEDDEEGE
Sequence of fixed activated platelets (P05106 27-788): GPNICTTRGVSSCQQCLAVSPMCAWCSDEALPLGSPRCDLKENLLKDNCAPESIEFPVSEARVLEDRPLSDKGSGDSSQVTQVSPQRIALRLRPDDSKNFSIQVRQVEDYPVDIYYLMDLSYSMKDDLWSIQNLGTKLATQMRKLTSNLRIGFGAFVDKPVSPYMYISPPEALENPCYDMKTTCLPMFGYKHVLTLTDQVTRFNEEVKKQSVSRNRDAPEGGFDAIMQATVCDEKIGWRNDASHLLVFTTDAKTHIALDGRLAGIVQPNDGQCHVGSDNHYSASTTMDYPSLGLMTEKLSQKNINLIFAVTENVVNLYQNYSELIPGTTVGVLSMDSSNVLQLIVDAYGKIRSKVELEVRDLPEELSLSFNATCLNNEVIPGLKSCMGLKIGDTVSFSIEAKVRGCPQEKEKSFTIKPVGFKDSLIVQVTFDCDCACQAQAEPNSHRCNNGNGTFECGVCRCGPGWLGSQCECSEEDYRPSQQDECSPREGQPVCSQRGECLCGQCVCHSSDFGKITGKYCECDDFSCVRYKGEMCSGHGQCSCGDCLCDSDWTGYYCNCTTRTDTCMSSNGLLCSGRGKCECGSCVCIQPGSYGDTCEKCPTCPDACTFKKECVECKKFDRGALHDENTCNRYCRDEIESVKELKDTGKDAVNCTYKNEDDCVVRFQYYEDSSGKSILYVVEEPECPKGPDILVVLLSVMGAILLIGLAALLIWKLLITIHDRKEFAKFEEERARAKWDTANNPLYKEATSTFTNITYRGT
Sequence of thrombin-stimulated platelets (P08514 32-1039): as the sequence (P08514 32-1039) above
Sequence of thrombin-stimulated platelets (P05106 27-788): as the sequence (P05106 27-788) above

IC50 [1] [nM]	inhibition at 25 µM [1] [%]	IC50 [2] [nM]	SMILES
630	90	580	N=C(N)NCCCCCC=CC(=O)N[C@@H](CC(=O)O)C(=O)N[C@@H](CCCNC(=N)N)C(=O)O [8-Guanidinooct-2-enoyl-L-aspartyl-L-arginine]
290	96	840	CC(C)[C@H](NC(=O)[C@H](CC(=O)O)NC(=O)C=CCCCCCNC(=N)N)C(=O)O [8-Guanidinooct-2-enoyl-L-aspartyl-L-valine]
7800	81	14500	CC(C)CNC(=O)[C@H](CC(=O)O)NC(=O)CCCCCCCNC(=N)N [8-Guanidinooctanoyl-L-aspartic acid-α-isobutylamide]
1600	93	780	N=C(N)NCCCCCCCC(=O)N[C@@H](CC(=O)O)C(=O)N[C@@H](CCCCN)C(=O)O [8-Guanidinooctanoyl-L-aspartyl-L-lysine]
690	96	200	N=C(N)NCCCCCCCC(=O)N[C@@H](CC(=O)O)C(=O)N[C@@H](Cc1ccccc1)C(=O)O [8-Guanidinooctanoyl-L-aspartyl-L-phenyl-alanine]
2700	89	2800	CC(C)[C@H](NC(=O)[C@H](CC(=O)O)NC(=O)CCCCCCCNC(=N)N)C(=O)O [8-Guanidinooctanoyl-L-aspartyl-L-valine]
2200	94	330	N=C(N)NCCCCCCCC(=O)N[C@@H](CC(=O)O)C(=O)N[C@@H](CCCNC(=N)N)C(=O)O [8-Guanidinooctanoyl-L-aspartyl-arginine]
3400	96	500	CC(C)[C@H](NC(=O)[C@H](CC(=O)O)NC(=O)CCCCCCCCn1ccnc1)C(=O)O [9-(Imidazol-1-yl)-nonanoyl-L-aspartyl-L-valine]
–	24	430	CC(C)[C@H](NC(=O)[C@H](CC(=O)O)NC(=O)/C=C/CCCCCCNC(=N)N)C(=O)O [9-Guanidinonon-2-(E)-enoyl-L-aspartyl-L-valine]
2200	89	3000	CC(C)CNC(=O)[C@H](CCCNC(=N)N)NC(=O)[C@H](CC(=O)O)NC(=O)CCCCCCCCNC(=N)N [9-Guanidinononanoyl-L-aspartyl-L-arginine isobutyl amide]
260	97	130	N=C(N)NCCCCCCCCC(=O)N[C@@H](CC(=O)O)C(=O)N[C@@H](CCCNC(=N)N)C(=O)O [9-Guanidinononanoyl-L-aspartyl-L-arginine]
4200	93	380	CC[C@H](C)[C@H](NC(=O)[C@H](CC(=O)O)NC(=O)CCCCCCCCNC(=N)N)C(=O)O [9-Guanidinononanoyl-L-aspartyl-L-isoleucine]
2000	97	15000	CC[C@H](C)[C@H](NC(=O)[C@H](CC(=O)O)NC(=O)CCCCCCCCNC(=N)N)C(=O)N[C@H](CCCNC(=N)N)C(=O)O [9-Guanidinononanoyl-L-aspartyl-L-isoleucyl-D-arginine]
2400	93	1200	CC[C@H](C)[C@H](NC(=O)[C@H](CCCNC(=N)N)NC(=O)[C@H](CC(=O)O)NC(=O)CCCCCCCCNC(=N)N)C(=O)O [9-Guanidinononanoyl-L-aspartyl-arginyl-isoleucine]
25000	54	40000	CC[C@H](C)[C@H](NC(=O)CNC(=O)[C@H](CC(=O)O)NC(=O)CCCCCCCCNC(=N)N)C(=O)O [9-Guanidinononanoyl-L-aspartyl-glycyl-L-isoleucine]
5700	95	240	CC[C@H](C)[C@H](NC(=O)[C@H](CC(=O)O)NC(=O)CCCCCCCCNC(=N)N)C(=O)NCCCCNC(=N)N [9-Guanidinononanoyl-L-aspartyl-isoleucine-4-guanidinobutyl amide]
670	94	370	CC[C@H](C)[C@H](NC(=O)[C@H](CC(=O)O)NC(=O)CCCCCCCCNC(=N)N)C(=O)N[C@@H](CCCNC(=N)N)C(=O)O [9-Guanidinononanoyl-L-aspartyl-isoleucyl-arginine]
999000	9	54000	CC[C@H](C)[C@H](NC(=O)CCNC(=O)[C@H](CC(=O)O)NC(=O)CCCCCCCCNC(=N)N)C(=O)O [9-Guanidinononanoyl-L-aspartyl-β-alanyl-L-isoleucine]
19100	10.1	30000	CC(C)[C@H](NC(=O)[C@H](CC(=O)O)NC(=O)CCCCCCCCN)C(=O)O [9-aminononanoyl-L-aspartyl-L-valine]
540	97	625	CC(C)COC(=O)[C@H](CCCNC(=N)N)NC(=O)[C@H](CC(=O)O)NC(=O)CCCCCCCCNC(=N)N [9-guanidinononanoyl-L-aspartyl-L-arginine isobutyl ester]

Further lines, the molecule ahead of its results:

SMILES	IC50 [1] [nM]	inhibition at 25 µM [1] [%]	IC50 [2] [nM]
N=C(N)NCCCCCCCC(=O)N[C@@H](CC(=O)O)C(=O)NCCCCNC(=N)N [8-Guanidinooctanoyl-L-aspartyl-(des-carboxy)-L-arginine]	1900	91	990
COC(=O)[C@](CCCNC(=N)N)(Cc1ccccc1)NC(=O)[C@H](CC(=O)O)NC(=O)CCCCCCCCNC(=N)N [9-Guanidinononanoyl-L-aspartyl-(S)-α-benzyl arginine methyl ester]	13300	69	20000
N=C(N)NCCCCCCCCC(=O)N[C@@H](CC(=O)O)C(=O)NCCCCNC(=N)N [9-Guanidinononanoyl-L-aspartyl-(des-carboxy)-L-arginine]	4400	84	520
CC[C@@H](C)[C@@H](NC(=O)[C@H](CC(=O)O)NC(=O)CCCCCCCCNC(=N)N)C(=O)N[C@@H](CCCNC(=N)N)C(=O)O [9-Guanidinononanoyl-L-aspartyl-D-isoleucyl-L-arginine]	13100	75	10200
CCC(C)COC(=O)[C@H](CCCNC(=N)N)NC(=O)[C@H](CC(=O)O)NC(=O)CCCCCCCCNC(=N)N (stereo partly drawn) [9-Guanidinononanoyl-L-aspartyl-L-arginine-2-methyl-butylester]	730	97	120
CC(C)CCOC(=O)[C@H](CCCNC(=N)N)NC(=O)[C@H](CC(=O)O)NC(=O)CCCCCCCCNC(=N)N [9-Guanidinononanoyl-L-aspartyl-L-arginine-3-methylbutyl ester]	1700	97	150
N=C(N)NCCCCCCCCC(=O)N[C@@H](CC(=O)O)C(=O)N[C@@H](CCCNC(=N)N)C(=O)OC1CCCCC1 [9-Guanidinononanoyl-L-aspartyl-L-arginine-cyclohexylester]	820	91	260
N=C(N)NCCCCCCCCC(=O)N[C@@H](CC(=O)O)C(=O)N[C@@H](CCCNC(=N)N)C(=O)N[C@@H](CCCNC(=N)N)C(=O)O [9-Guanidinononanoyl-L-aspartyl-L-arginyl-L-arginine]	15000	68	15000
CCCC[C@H](NC(=O)[C@H](CC(=O)O)NC(=O)CCCCCCCCNC(=N)N)C(=O)N[C@@H](CCCNC(=N)N)C(=O)O [9-Guanidinononanoyl-L-aspartyl-L-norleucyl-L-arginine]	300	95	210
N=C(N)NCCCCCCCCC(=O)N[C@@H](CC(=O)O)C(=O)N[C@@H](Cc1ccccc1)C(=O)N[C@@H](CCCNC(=N)N)C(=O)O [9-Guanidinononanoyl-L-aspartyl-L-phenylalanine-L-arginine]	320	98	6000
N=C(N)NCCCCCCCCC(=O)N[C@@H](CC(=O)O)C(=O)NCC(=O)N[C@@H](CCCNC(=N)N)C(=O)O [9-Guanidinononanoyl-L-aspartyl-glycyl-L-arginine]	2200	85	7000
CCC(CC)(NC(=O)[C@H](CC(=O)O)NC(=O)CCCCCCCCNC(=N)N)C(=O)N[C@@H](CCCNC(=N)N)C(=O)O [9-Guanidinononanoyl-L-aspartyl-α,α-diethyl-glycyl-L-arginine]	> 25000	20	40000
N=C(N)NCCCCCCCCC(=O)N[C@@H](CC(=O)O)C(=O)NC(Cc1ccccc1)(Cc1ccccc1)C(=O)O [9-Guanidinononanoyl-L-aspartyl-α-benzylphenylalanine]	> 25000	10	> 200000
N=C(N)NCCCCCCCCC(=O)N[C@@H](CC(=O)O)C(=O)NCCC(=O)N[C@@H](CCCNC(=N)N)C(=O)O [9-Guanidinononanoyl-L-aspartyl-β-alanyl-L-arginine]	1500	93	640
